Results on four compounds are retold here after patent US9879303B2, “Chromogenic glucuronidase substrates and uses” (Glycosynth Limited, priority 2013, dated 2018).

Holding throughout (assay type): cell-based
For assay [1], the system named is 20 different microbial strains. The assay can be described thus: specificity of action on 20 different microbial strains, Columbia agar. The settings on record: 19 organisms other than E. coli NCTC 10418, FAC. The procedure:
(§1) The specificity of action of both DHN-β-D-glucuronide (2) and of catechol-β-D-glucuronide (1), as well as their 6′-methyl esters (4 and 6), was first established using multi-point inoculation of 20 different microbial strains onto Columbia agar plates. The strains chosen represented species commonly encountered in diagnostic microbiology. The substrates were incorporated into the agar at a concentration of 300 mg/L with an iron salt, ferric ammonium citrate, (hereinafter known as FAC) at 500 mg/L. The plates were incubated for 18 h at 37° C. in air.
Of the 20 strains, only the β-D-glucuronidase-positive strain of E. coli, (E. coli NCTC 10418) was able to hydrolyse the substrates. This organism generated diffuse, purple-brown colonies with the catechol substrates and diffuse, maroon colonies with the DHN substrates. Essentially identical results were obtained if other iron salts (e.g. iron(II) gluconate, iron(II) acetate, iron(II) citrate, iron(II) acetylacetonate and iron(III) acetylacetonate) were substituted in place of FAC. The iron compound can be either iron(II) (i.e. ferrous) or iron(III) (i.e. ferric). Both types of compound work equally, and the coloured chelates were still formed when the plates were incubated under anaerobic conditions, which is another useful feature of the present invention. The substrates may also be autoclaved at 116° C. for 20 minutes with no decrease in sensitivity. It will be appreciated that the media and the reagents will all contain at least traces of iron compounds. […] In contrast, supplementing the growth media with compounds of other metals gave either no coloured endpoint or an extremely poor one to visualise. […] Therefore the latter substrates were preferred for more extensive evaluation. […] For convenience, further evaluation of catechol-β-D-glucuronide and DHN-β-D-glucuronide was conducted with the CHA salt forms only (1 and 2b). In the present invention the counter ion of the glucuronide is not considered to be of special significance. For acidic enzyme substrates (including glucuronides), a variety of different counter ions, both inorganic and organic, are well known in the prior art.

The test system of the next assay is E. faecalis NCTC 775. The assay can be described thus: screen of strains in broth medium containing FAC. On the set-up: key: Red, Green, Black or Purple mean strong colour; Red, Green, Black or Purple mean strong colour; Red, Green, Black or Purple mean strong colour; Red, Green, Black or Purple mean strong colour; +/− means less colour than strong; Tr means a trace of colour, less than +/−; — means no colour. The settings on record: 37° C. 18 hours.

Assay [2] concerns Enterococcus faecalis NCTC 775. The assay can be described thus: multi-point inoculation onto Columbia agar plates. The note with it: substrate 300 mg/L, FAC 500 mg/L, 18 h at 37° C. in air. The procedure: as §1
The test system of assay [3] is Staphylococcus aureus NCTC 6571. The assay can be described thus: multi-point inoculation onto Columbia agar plates. The note with it: substrate 300 mg/L, FAC 500 mg/L, 18 h at 37° C. in air. The procedure:
as §1

The test system of assay [4] is Acinetobacter baumanaii NCTC 19606. The assay can be described thus: multi-point inoculation onto Columbia agar plates. The settings on record: substrate 300 mg/L, FAC 500 mg/L, 18 h at 37° C. in air. The procedure: as §1
Assay [5] deals with Candida glabrata NCPF 3943. The assay can be described thus: multi-point inoculation onto Columbia agar plates. The settings on record: substrate 300 mg/L, FAC 500 mg/L, 18 h at 37° C. in air. The procedure:
as §1

Assay [6] deals with Burkholderia cepacia NCTC 10931. The assay can be described thus: multi-point inoculation onto Columbia agar plates. The settings on record: substrate 300 mg/L, FAC 500 mg/L, 18 h at 37° C. in air. The procedure: as §1
For assay [7], the system named is Klebsiella pneumoniae NCTC 9528. The assay can be described thus: multi-point inoculation onto Columbia agar plates. The settings on record: substrate 300 mg/L, FAC 500 mg/L, 18 h at 37° C. in air. The procedure:
as §1

Assay [8] deals with Serratia marcescens NCTC 10211. The assay can be described thus: multi-point inoculation onto Columbia agar plates. The note with it: substrate 300 mg/L, FAC 500 mg/L, 18 h at 37° C. in air. The procedure: as §1
The subject of assay [9] is Salmonella typhimurium NCTC 74. The assay can be described thus: multi-point inoculation onto Columbia agar plates. The note with it: substrate 300 mg/L, FAC 500 mg/L, 18 h at 37° C. in air. The procedure: as §1
Assay [10] has as its system Enterobacter cloacae NCTC 11936. The assay can be described thus: multi-point inoculation onto Columbia agar plates. The settings on record: substrate 300 mg/L, FAC 500 mg/L, 18 h at 37° C. in air. The procedure:
as §1

For assay [11], the system named is Streptococcus pyogenes NCTC 8306. The assay can be described thus: multi-point inoculation onto Columbia agar plates. The settings on record: substrate 300 mg/L, FAC 500 mg/L, 18 h at 37° C. in air. The procedure:
as §1

The subject of assay [12] is Pseudomonas aeruginosa NCTC 10662. The assay can be described thus: multi-point inoculation onto Columbia agar plates. The note with it: substrate 300 mg/L, FAC 500 mg/L, 18 h at 37° C. in air. The procedure:
as §1

Assay [13] has as its system Staphylococcus aureus (MRSA) NCTC 11939. The assay can be described thus: multi-point inoculation onto Columbia agar plates. The settings on record: substrate 300 mg/L, FAC 500 mg/L, 18 h at 37° C. in air. The procedure:
as §1

The subject of assay [14] is Bacillus subtilis NCTC 9372. The assay can be described thus: multi-point inoculation onto Columbia agar plates. The note with it: substrate 300 mg/L, FAC 500 mg/L, 18 h at 37° C. in air. The procedure:
as §1

The subject of assay [15] is Staphylococcus epidermidis NCTC 11047. The assay can be described thus: multi-point inoculation onto Columbia agar plates. The settings on record: substrate 300 mg/L, FAC 500 mg/L, 18 h at 37° C. in air. The procedure:
as §1

Assay [16] has as its system Enterococcus faecium NCTC 7171. The assay can be described thus: multi-point inoculation onto Columbia agar plates. The note with it: substrate 300 mg/L, FAC 500 mg/L, 18 h at 37° C. in air. The procedure:
as §1

For assay [17], the system named is Escherichia coli NCTC 10418. The assay can be described thus: multi-point inoculation onto Columbia agar plates. The note with it: substrate 300 mg/L, FAC 500 mg/L, 18 h at 37° C. in air. The procedure: as §1
For assay [18], the system named is Yersinia enterocolitica NCTC 11176. The assay can be described thus: multi-point inoculation onto Columbia agar plates. The settings on record: substrate 300 mg/L, FAC 500 mg/L, 18 h at 37° C. in air. The procedure:
as §1

Assay [19] deals with Listeria monocytogenes NCTC 11994. The assay can be described thus: multi-point inoculation onto Columbia agar plates. The settings on record: substrate 300 mg/L, FAC 500 mg/L, 18 h at 37° C. in air. The procedure: as §1
Assay [20] deals with Providencia rettgeri NCTC 7475. The assay can be described thus: multi-point inoculation onto Columbia agar plates. The note with it: substrate 300 mg/L, FAC 500 mg/L, 18 h at 37° C. in air. The procedure:
as §1

Assay [21] deals with Candida albicans ATCC 90028. The assay can be described thus: multi-point inoculation onto Columbia agar plates. The settings on record: substrate 300 mg/L, FAC 500 mg/L, 18 h at 37° C. in air. The procedure: as §1
In assay [22] the test system is E. cloacae. The assay can be described thus: screen of strains in broth medium containing FAC. More on the design: key: Red, Green, Black or Purple mean strong colour; Red, Green, Black or Purple mean strong colour; Red, Green, Black or Purple mean strong colour; Red, Green, Black or Purple mean strong colour; +/− means less colour than strong; Tr means a trace of colour, less than +/−; — means no colour.

Assay [23] has as its system E. cloacae. The assay can be described thus: screen of strains on agar plates (CPS ID 3 or Columbia agar). On the set-up: key: Red, Green, Black or Purple mean strong colour; Red, Green, Black or Purple mean strong colour; Red, Green, Black or Purple mean strong colour; Red, Green, Black or Purple mean strong colour; +/− means less colour than strong; Tr means a trace of colour, less than +/−; — means no colour.

Setting [24] is: E. cloacae 260329R, 37° C. 18 hours.
[25] abbreviates: E. cloacae NCTC 11936, 37° C. 18 hours.

Structures can show the parent of a compound that is named as a salt.

Turning to `O=C(O)C1OC(Oc2ccccc2O)C(O)C(O)C1O` [Compound 1, Catechol β-D-Glucuronide CHA Salt], the “result with the other 19 organisms” value in assay [1] is recorded as “uniformly negative”. In addition, the colour entry with E. faecalis NCTC 775 is “—”; in assay [2], “−”; in [3] it was “−”; in assay [4], “−”; in [5] it was “−”; in assay [6], “−”. Besides, the colour entry in assay [7], in assay [8], in [9], in assay [10], in [11] and in assay [12] was “−” each time. Moreover, the colour entry in assay [13] is reported as “−”; in [14], “−”; in assay [15] it was “−”; in assay [16], “−”; in assay [17], “++”; in assay [18] it was “−”. The colour entry in assay [19] was “−”; in assay [20], “−”; in assay [21], “−”; in the assay with E. cloacae [22] (setting [24]), “—”; in the assay on E. cloacae [22] (setting [25]), “—”.
Regarding `O=C(O)C1OC(Oc2cc3ccccc3cc2O)C(O)C(O)C1O` [Compound 2b, DHN-β-D-Glucuronide CHA Salt], the “result with the other 19 organisms” value in assay [1] was “uniformly negative”. The colour result in the assay on E. faecalis NCTC 775 is “—”; in assay [2], “−”; in [3] it was “−”; in assay [4], “−”; in assay [5] it was “−”; in [6], “−”. Also, the colour entry in assay [7], in assay [8], in assay [9], in assay [10], in assay [11] and in assay [12] was “−” each time. Also, the colour entry in assay [13] is “−”; in assay [14] it was “−”; in [15] it was “−”; in assay [16] it was “−”; in assay [17] it was “++”; in assay [18], “−”. The colour result in assay [19] is given as “−”; in assay [20] it was “−”; in assay [21] it was “−”; in the assay with E. cloacae [22] (setting [24]) it was “—”; in the assay with E. cloacae [22] (setting [25]) it was “—”.
As to `O=C(O)[C@H]1O[C@@H](Oc2c[nH]c3cc(Cl)ccc23)[C@H](O)[C@@H](O)[C@@H]1O` [Rose-β-D-glucuronide CHA salt, 6-chloro-3-indolyl β-D-glucuronide], the colour result with E. cloacae [23] (setting [24]) and with E. cloacae [23] (setting [25]) was “—” in each case.
Turning to `O=C(O)[C@H]1O[C@@H](Oc2c[nH]c3ccc(Br)c(Cl)c23)[C@H](O)[C@@H](O)[C@@H]1O` [X-β-D-glucuronide CHA salt, 5-bromo-4-chloro-3-indolyl β-D-glucuronide], the colour result in the assay on E. cloacae [23] (setting [24]) and in the assay on E. cloacae [23] (setting [25]) was “—” each time.
